# Laboratory results as given in patent publication US20240368121A1, “ESTROGEN RECEPTOR DEGRADERS, PHARMACEUTICAL COMPOSITIONS THEREOF, AND THEIR THERAPEUTIC APPLICATIONS” (BioTheryX, Inc., priority 2021, published 2024).
# How the values were obtained:
# Type in all cases: cell-based
# [1] = target: T1, ERα (Homo sapiens, UniProt P03372); experiment: Protein degradation assay: ERα in MCF-7 cells via western blot; conditions: 6 h; for ERα Protein Degradation 1 nM: 1 nM compound; for ERα Protein Degradation 10 nM: 10 nM compound; for ERα Protein Degradation 100 nM: 100 nM compound
# T1 construct: degrading an ERα in MCF-7 cells via a western blot; endogenous in cells; host or cells: MCF-7
# T1 sequence (P03372 1-595): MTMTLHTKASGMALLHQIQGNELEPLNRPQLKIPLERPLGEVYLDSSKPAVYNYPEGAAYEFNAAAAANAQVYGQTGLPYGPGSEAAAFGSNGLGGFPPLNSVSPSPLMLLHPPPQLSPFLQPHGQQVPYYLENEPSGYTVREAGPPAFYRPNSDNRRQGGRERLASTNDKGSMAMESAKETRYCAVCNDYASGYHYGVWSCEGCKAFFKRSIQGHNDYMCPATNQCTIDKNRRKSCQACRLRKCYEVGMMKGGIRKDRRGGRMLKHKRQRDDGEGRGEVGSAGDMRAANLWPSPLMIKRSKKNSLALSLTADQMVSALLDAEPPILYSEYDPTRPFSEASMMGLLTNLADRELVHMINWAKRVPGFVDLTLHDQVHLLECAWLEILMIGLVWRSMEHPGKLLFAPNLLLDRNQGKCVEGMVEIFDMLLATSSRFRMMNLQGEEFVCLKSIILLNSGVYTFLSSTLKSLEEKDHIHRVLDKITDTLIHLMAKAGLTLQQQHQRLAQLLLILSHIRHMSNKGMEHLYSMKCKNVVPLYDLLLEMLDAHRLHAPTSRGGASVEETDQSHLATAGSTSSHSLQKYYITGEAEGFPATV
# Method in brief: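 MCF-7 cells in MEM/10% FBS with insulin, seeded 300,000/well, treated 6 h at set concentrations (e.g., 1 nM–1 μM). Whole-cell lysates immunoblotted for ERα with GAPDH loading control, chemiluminescent detection; percentage degradation reported in binned categories (≥50%, 25–50%, 10–25%, <10%).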
# [2] = tested on: MCF7 cells; experiment: Cell viability assay ([…]-GLO, 6-day treatment); conditions: Homo sapiens, MCF7, 144 h; MCF-7 cells, 6 days, CTG; read-out: Inhibition of Cancerous Cells IC50 MCF-7
# Method in brief: (§1)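 MCF7 (MEM) and T47D (RPMI with insulin), both with 10% FBS, at 1,000 cells/well, treated with a 10-point compound dose series for 6 days, with medium and compound refreshed once. Viability read by CellTiter-Glo luminescence.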
# [3] = tested on: T47D cells; experiment: Cell viability assay ([…]-GLO, 6-day treatment); conditions: Homo sapiens, 144 h, 6 days, CTG, read-out: Inhibition of Cancerous Cells IC50 T47D
# Method in brief: as §1
Structure (SMILES),ERα Protein Degradation 1 nM [1],ERα Protein Degradation 10 nM [1],ERα Protein Degradation 100 nM [1],IC50 [2],IC50 [3]
"Cc1c(-c2ccc(O)cc2)n(Cc2ccc(OCCCCN3CCN(c4ccc5c(c4)CN(C4CCC(=O)NC4=O)C5=O)CC3)cc2)c2ccc(O)cc12 (centres unmarked) [Compound E2, 3-(5-(4-(4-(4-((5-Hydroxy-2-(4-hydroxyphenyl)-3-methyl-1H-indol-1-yl)methyl)-phenoxy)butyl)piperazin-1-yl)-1-oxoisoindolin-2-yl)piperidine-2,6-dione]",D (a percentage degradation value of less than 10%),D (a percentage degradation value of less than 10%),D (a percentage degradation value of less than 10%),0.45 nM,0.25 nM
"Cc1c(-c2ccc(O)cc2)n(Cc2ccc(OCCCCN3CCN(C(=O)COc4ccc5c(c4)CN(C4CCC(=O)NC4=O)C5=O)CC3)cc2)c2ccc(O)cc12 (centres unmarked) [Compound E3, 3-(5-(2-(4-(4-(4-((5-Hydroxy-2-(4-hydroxyphenyl)-3-methyl-1H-indol-1-yl)-methyl)phenoxy)butyl)piperazin-1-yl)-2-oxoethoxy)-1-oxoisoindolin-2-yl)piperidine-2,6-dione]",B (a percentage degradation value of less than 50% and no less than 25%),B (a percentage degradation value of less than 50% and no less than 25%),B (a percentage degradation value of less than 50% and no less than 25%),4.5 nM,3.2 nM
"Cc1c(-c2ccc(O)cc2)n(Cc2ccc(N3CCC(CN4CCN(c5ccc6c(c5)CN(C5CCC(=O)NC5=O)C6=O)CC4)CC3)cc2)c2ccc(O)cc12 (centres unmarked) [Compound E4, 3-(5-(4-((1-(4-((5-hydroxy-2-(4-hydroxyphenyl)-3-methyl-1H-indol-1-yl)-methyl)phenyl)piperidin-4-yl)methyl)piperazin-1-yl)-1-oxoisoindolin-2-yl)piperidine-2,6-dione]",B (a percentage degradation value of less than 50% and no less than 25%),B (a percentage degradation value of less than 50% and no less than 25%),C (a percentage degradation value of less than 25% and no less than 10%),0.38 nM,0.17 nM
"Cc1c(-c2ccc(O)cc2)n(Cc2ccc(OCCCCNCc3ccc(OCc4scc5c4CN(C4CCC(=O)NC4=O)C5=O)cc3)cc2)c2ccc(O)cc12 (centres unmarked) [Compound E5, 3-(1-((4-(((4-(4-((5-hydroxy-2-(4-hydroxyphenyl)-3-methyl-1H-indol-1-yl)-methyl)phenoxy)butyl)amino)methyl)phenoxy)methyl)-4-oxo-4H-thieno[3,4-c]pyrrol-5(6H)-yl)-piperidine-2,6-dione]",D (a percentage degradation value of less than 10%),D (a percentage degradation value of less than 10%),D (a percentage degradation value of less than 10%),0.09 nM,0.02 nM
"Cc1c(-c2ccc(O)cc2)n(Cc2ccc(OCCCCN3CCN(C(=O)COc4cccc5c(C6CCC(=O)NC6=O)nn(C)c45)CC3)cc2)c2ccc(O)cc12 (centres unmarked) [Compound E7, 3-(7-(2-(4-(4-(4-((5-Hydroxy-2-(4-hydroxyphenyl)-3-methyl-1H-indol-1-yl)-methyl)phenoxy)butyl)piperazin-1-yl)-2-oxoethoxy)-1-methyl-1H-indazol-3-yl)piperidine-2,6-dione]",B (a percentage degradation value of less than 50% and no less than 25%),A (a percentage degradation value of no less than 50%),A (a percentage degradation value of no less than 50%),1.1 nM,0.64 nM
"Cc1c(-c2ccc(O)cc2)n(Cc2ccc(OCCCCN3CCN(C(=O)COc4ccc5c(N6CCC(=O)NC6=O)nn(C)c5c4)CC3)cc2)c2ccc(O)cc12 [Compound E16, 1-(6-(2-(4-(4-(4-((5-Hydroxy-2-(4-hydroxyphenyl)-3-methyl-1H-indol-1-yl)-methyl)phenoxy)butyl)piperazin-1-yl)-2-oxoethoxy)-1-methyl-1H-indazol-3-yl)dihydro-pyrimidine-2,4(1H,3H)-dione]",C (a percentage degradation value of less than 25% and no less than 10%),C (a percentage degradation value of less than 25% and no less than 10%),D (a percentage degradation value of less than 10%),1.8 nM,1.3 nM
"Cc1c(-c2ccc(O)cc2)n(Cc2ccc(OCCCCN3CCN(C(=O)COc4ccc(N5CCC(=O)NC5=O)cc4)CC3)cc2)c2ccc(O)cc12 [Compound E27, 1-(4-(2-(4-(4-(4-((5-hydroxy-2-(4-hydroxyphenyl)-3-methyl-1H-indol-1-yl)-methyl)phenoxy)butyl)piperazin-1-yl)-2-oxoethoxy)phenyl)dihydropyrimidine-2,4(1H,3H)-dione]",D (a percentage degradation value of less than 10%),D (a percentage degradation value of less than 10%),D (a percentage degradation value of less than 10%),5.6 nM,3.2 nM
